Reference: PubChem BioAssay AID248 (DTP/NCI, 2004)
Where “and” joins values, the source holds several entries; their conditions need not be identical. Equal values may be shown once. Toxic doses and inconclusive results are not listed.

System: L1210 leukemia ip in BDF1 mice, survival T/C
Assay: NCI In Vivo Anticancer Drug Screen. Data for tumor model L1210 Leukemia (intraperitoneal) in B6D2F1 (BDF1) mice
Conditions: endpoint: mean survival time, higher = longer survival
In short: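 Mice bearing the transplanted tumor received compound or vehicle. Survival of the treated group was divided by that of the vehicle-treated control group to give the ratio.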

[1] = dose: 100.0 mg/kg/injection, schedule: Q04DX002 (ip), vehicle: saline
[2] = dose: 200.0 mg/kg/injection, schedule: Q04DX002 (ip), vehicle: saline
[3] = dose: 100.0 mg/kg/injection, schedule: Q01DX009 (ip), vehicle: saline
[4] = dose: 200.0 mg/kg/injection, schedule: Q01DX009 (ip), vehicle: saline
[5] = dose: 100.0 mg/kg/injection, schedule: Q04DX003 (ip), vehicle: Klucel (hydroxypropylcellulose) (HPC)
[6] = dose: 200.0 mg/kg/injection, schedule: Q04DX003 (ip), vehicle: Klucel (hydroxypropylcellulose) (HPC)
[7] = dose: 400.0 mg/kg/injection, schedule: Q04DX003 (ip), vehicle: Klucel (hydroxypropylcellulose) (HPC)
[8] = dose: 400.0 mg/kg/injection, schedule: Q01DX001 (ip), vehicle: saline
[9] = dose: 100.0 mg/kg/injection, schedule: Q04DX002 (ip), vehicle: saline with Tween-80
[10] = dose: 200.0 mg/kg/injection, schedule: Q04DX002 (ip), vehicle: saline with Tween-80
[11] = dose: 100.0 mg/kg/injection, schedule: Q04DX003 (ip), vehicle: saline with Tween-80
[12] = dose: 200.0 mg/kg/injection, schedule: Q04DX003 (ip), vehicle: saline with Tween-80
[13] = dose: 400.0 mg/kg/injection, schedule: Q04DX003 (ip), vehicle: saline with Tween-80
[14] = dose: 400.0 mg/kg/injection, schedule: Q04DX002 (ip), vehicle: saline with Tween-80
[15] = dose: 100.0 mg/kg/injection, schedule: Q04DX003 (ip), vehicle: saline
[16] = dose: 200.0 mg/kg/injection, schedule: Q04DX003 (ip), vehicle: saline
[17] = dose: 100.0 mg/kg/injection, schedule: Q01DX001 (ip), vehicle: saline
[18] = dose: 200.0 mg/kg/injection, schedule: Q01DX001 (ip), vehicle: saline

Question: Which T/C (dose: 5.0 mg/kg/injection, schedule: Q01DX001 (ip), vehicle: saline) does the source give for `O=C1NC(=O)C(F)C(O)N1` (centres undefined) here?
Answer: 102 % of control

Question: And the T/C (dose: 10.0 mg/kg/injection, schedule: Q01DX001 (ip), vehicle: saline)?
Answer: 101 % of control

Question: And the T/C (dose: 20.0 mg/kg/injection, schedule: Q01DX001 (ip), vehicle: saline)?
Answer: 96 % of control

Question: And the T/C (dose: 40.0 mg/kg/injection, schedule: Q01DX001 (ip), vehicle: saline)?
Answer: 101 % of control

Question: What about the T/C (dose: 80.0 mg/kg/injection, schedule: Q01DX001 (ip), vehicle: saline) of the same compound?
Answer: 108 % of control

Question: `CC(N=c1nc(N)ccn1C1OC(CO)C(O)C1O)C(=O)O` (centres undefined) was tested. Which T/C (dose: 200.0 mg/kg/injection, schedule: Q01DX005 (ip), vehicle: saline) did it give?
Answer: 120 % of control

Question: Which results are given for `C[N+](C)(N)Cc1ccc(C[N+](C)(C)N)cc1`?
Answer: T/C [1]: 108 % of control; T/C [2]: 97 % of control

Question: Which results are given for `CCNC(=O)N(O)C1(C#N)CCCCC1`?
Answer: T/C (dose: 100.0 mg/kg/injection, schedule: Q01DX001 (ip), vehicle: other): 98 % of control; T/C (dose: 200.0 mg/kg/injection, schedule: Q01DX001 (ip), vehicle: other): 96 % of control; T/C (dose: 400.0 mg/kg/injection, schedule: Q01DX001 (ip), vehicle: other): 98 % of control

Question: For `O=C(O)CCCC1CCCCc2ccccc21` (centres undefined), which T/C (dose: 100.0 mg/kg/injection, schedule: Q04DX003 (ip), vehicle: acetone) is on record?
Answer: 103 % of control

Question: What about the T/C (dose: 200.0 mg/kg/injection, schedule: Q04DX003 (ip), vehicle: acetone) of the same compound?
Answer: 100 % of control

Question: What about the T/C (dose: 400.0 mg/kg/injection, schedule: Q04DX003 (ip), vehicle: acetone) of the same compound?
Answer: 110 % of control

Question: Which results are given for `CCCCCCCCCCOC(=O)COc1ccc(C(C)(C)C)cc1`?
Answer: T/C [3]: 92 % of control; T/C [4]: 98 % of control

Question: `CCNC(=O)c1c2ccccc2nc2c1c(C)c(C)c1ccccc12` was tested. Which T/C [5] did it give?
Answer: 108 % of control

Question: And the T/C [6]?
Answer: 112 % of control

Question: And the T/C [7]?
Answer: 106 % of control

Question: With `COc1ccccc1/C=N/NC(=O)c1cccc2ccccc12` as the compound, how does the T/C [8] read?
Answer: 87 % of control

Question: How did the T/C [9] turn out when `O=C1CCCCC1c1sc([N+](=O)[O-])cc1[N+](=O)[O-]` (centres undefined) was run?
Answer: 93 % of control

Question: And the T/C [10]?
Answer: 104 % of control

Question: How did the T/C [5] turn out when `C1OCC(C2OCOC3COCOC32)O1` (centres undefined) was run?
Answer: 98 % of control

Question: And the T/C [6]?
Answer: 95 % of control

Question: What about the T/C [7] of the same compound?
Answer: 95 % of control

Question: How did the T/C [11] turn out when `CCCCS.[Pb]` was run?
Answer: 95 % of control

Question: What about the T/C [12] of the same compound?
Answer: 95 % of control

Question: What about the T/C [13] of the same compound?
Answer: 96 % of control

Question: How did the T/C (dose: 50.0 mg/kg/injection, schedule: Q01DX009 (ip), vehicle: water) turn out when `CC(=O)Nc1cc(N)cc(NC(C)=O)c1` was run?
Answer: 91 % of control

Question: What about the T/C (dose: 100.0 mg/kg/injection, schedule: Q01DX009 (ip), vehicle: water) of the same compound?
Answer: 103 % of control and 107 % of control

Question: What about the T/C (dose: 100.0 mg/kg/injection, schedule: Q04DX003 (ip), vehicle: water) of the same compound?
Answer: 100 % of control

Question: What about the T/C (dose: 200.0 mg/kg/injection, schedule: Q01DX009 (ip), vehicle: water) of the same compound?
Answer: 102 % of control and 103 % of control

Question: What about the T/C (dose: 200.0 mg/kg/injection, schedule: Q04DX003 (ip), vehicle: water) of the same compound?
Answer: 98 % of control

Question: And the T/C (dose: 400.0 mg/kg/injection, schedule: Q01DX009 (ip), vehicle: water)?
Answer: 93 % of control

Question: Which results are given for `CC(=O)NC(CO)C(O)c1ccc([N+](=O)[O-])cc1` (centres undefined)?
Answer: T/C (dose: 100.0 mg/kg/injection, schedule: Q01DX001 (ip), vehicle: saline with Tween-80): 101 % of control; T/C [9]: 87 % of control; T/C (dose: 200.0 mg/kg/injection, schedule: Q01DX001 (ip), vehicle: saline with Tween-80): 87 % of control; T/C [10]: 94 % of control; T/C (dose: 400.0 mg/kg/injection, schedule: Q01DX001 (ip), vehicle: saline with Tween-80): 97 % of control; T/C [14]: 100 % of control

Question: Which results are given for `COc1ccc(NC(=S)Nc2ccccc2)cc1`?
Answer: T/C [9]: 101 % of control; T/C [10]: 108 % of control; T/C [14]: 108 % of control

Question: `CC(C)(C)c1cccc(C(C)(C)C)n1` was tested. Which T/C [11] did it give?
Answer: 97 % of control

Question: What about the T/C [12] of the same compound?
Answer: 105 % of control

Question: What about the T/C [13] of the same compound?
Answer: 115 % of control

Question: `c1ccc(N=NC(c2ccccc2)c2ccccc2)cc1` was tested. Which T/C (dose: 50.0 mg/kg/injection, schedule: Q04DX003 (ip), vehicle: saline) did it give?
Answer: 106 % of control

Question: And the T/C [15]?
Answer: 95 % of control

Question: What about the T/C [16] of the same compound?
Answer: 106 % of control

Question: With `O=C(O)CCn1ccc2ccccc21` as the compound, how does the T/C [5] read?
Answer: 97 % of control

Question: What about the T/C [6] of the same compound?
Answer: 97 % of control

Question: What about the T/C [7] of the same compound?
Answer: 97 % of control

Question: For `O=C(Cc1ccccc1)CC(O)(C(F)(F)F)C(F)(F)F`, which T/C (dose: 100.0 mg/kg/injection, schedule: Q01DX009 (ip), vehicle: saline with Tween-80) is on record?
Answer: 110 % of control

Question: What about the T/C (dose: 200.0 mg/kg/injection, schedule: Q01DX009 (ip), vehicle: saline with Tween-80) of the same compound?
Answer: 100 % of control

Question: What does the source list for `CC(=O)OCC1OC(n2cc(C)c(=O)[nH]c2=O)C(OC(C)=O)C(OC(C)=O)C1OC(C)=O` (centres undefined)?
Answer: T/C [17]: 94 % of control; T/C [18]: 105 % of control; T/C [8]: 97 % of control

Question: Which results are given for `COc1ccc(CC(N)C(=O)O)cc1N(CCCl)CCCl` (centres undefined)?
Answer: T/C (dose: 0.07 mg/kg/injection, schedule: Q01DX009 (ip), vehicle: carboxymethylcellulose (CMC)): 116 % of control; T/C (dose: 0.08 mg/kg/injection, schedule: Q01DX009 (ip), vehicle: carboxymethylcellulose (CMC)): 117 % of control; T/C (dose: 0.4 mg/kg/injection, schedule: Q01DX009 (ip), vehicle: carboxymethylcellulose (CMC)): 110 % of control; T/C (dose: 0.6 mg/kg/injection, schedule: Q01DX001 (ip), vehicle: carboxymethylcellulose (CMC)): 111 % of control and 108 % of control; T/C (dose: 1.2 mg/kg/injection, schedule: Q01DX001 (ip), vehicle: carboxymethylcellulose (CMC)): 120 % of control and 106 % of control; T/C (dose: 1.2 mg/kg/injection, schedule: Q01DX009 (ip), vehicle: carboxymethylcellulose (CMC)): 150 % of control; T/C (dose: 1.5 mg/kg/injection, schedule: Q01DX009 (ip), vehicle: carboxymethylcellulose (CMC)): 151 % of control; T/C (dose: 2.0 mg/kg/injection, schedule: Q01DX009 (ip), vehicle: carboxymethylcellulose (CMC)): 166 % of control; T/C (dose: 2.5 mg/kg/injection, schedule: Q01DX001 (ip), vehicle: carboxymethylcellulose (CMC)): 121 % of control and 110 % of control; T/C (dose: 2.5 mg/kg/injection, schedule: Q01DX009 (ip), vehicle: carboxymethylcellulose (CMC)): 227 % of control; T/C (dose: 3.0 mg/kg/injection, schedule: Q01DX009 (ip), vehicle: carboxymethylcellulose (CMC)): 183 % of control; T/C (dose: 4.5 mg/kg/injection, schedule: Q01DX009 (ip), vehicle: carboxymethylcellulose (CMC)): 180 % of control and 213 % of control; T/C (dose: 5.0 mg/kg/injection, schedule: Q01DX001 (ip), vehicle: carboxymethylcellulose (CMC)): 123 % of control; T/C (dose: 5.0 mg/kg/injection, schedule: Q01DX009 (ip), vehicle: carboxymethylcellulose (CMC)): 92 % of control; T/C (dose: 5.5 mg/kg/injection, schedule: Q01DX001 (ip), vehicle: carboxymethylcellulose (CMC)): 151 % of control and 152 % of control; T/C (dose: 6.0 mg/kg/injection, schedule: Q01DX009 (ip), vehicle: carboxymethylcellulose (CMC)): 98 % of control; T/C (dose: 7.0 mg/kg/injection, schedule: Q01DX009 (ip), vehicle: carboxymethylcellulose (CMC)): 116 % of control; T/C (dose: 11.0 mg/kg/injection, schedule: Q01DX001 (ip), vehicle: carboxymethylcellulose (CMC)): 206 % of control; T/C (dose: 12.0 mg/kg/injection, schedule: Q01DX009 (ip), vehicle: carboxymethylcellulose (CMC)): 93 % of control; T/C (dose: 16.5 mg/kg/injection, schedule: Q01DX001 (ip), vehicle: carboxymethylcellulose (CMC)): 173 % of control; T/C (dose: 25.0 mg/kg/injection, schedule: Q01DX001 (ip), vehicle: carboxymethylcellulose (CMC)): 217 % of control

Question: Which T/C [17] does the source give for `Nc1ccc(N=Nc2ccc(S(=O)(=O)Nc3ccccn3)cc2)c(N)n1` here?
Answer: 96 % of control

Question: What about the T/C [18] of the same compound?
Answer: 102 % of control

Question: And the T/C [8]?
Answer: 105 % of control

Question: Which results are given for `CCN(CC)CCN(C)CCN(CC)CC`?
Answer: T/C (dose: 50.0 mg/kg/injection, schedule: Q01DX009 (ip), vehicle: saline): 91 % of control; T/C [3]: 102 % of control; T/C [15]: 93 % of control; T/C [4]: 101 % of control; T/C [16]: 98 % of control

Question: How did the T/C [1] turn out when `CC1(C)OC(C(O)CO)C(C2COC(=S)O2)O1` (centres undefined) was run?
Answer: 107 % of control

Question: And the T/C [2]?
Answer: 104 % of control

Question: And the T/C (dose: 400.0 mg/kg/injection, schedule: Q04DX002 (ip), vehicle: saline)?
Answer: 100 % of control
